# Results published in US20030170252A1, “Antibody compositions specific for p33QIK and p63Krs1 polypeptides and uses thereof” (priority 2000, published 2003).
# Read-outs that look alike come from different tables or passages of the source. Starred links: 1 amine or outer side, 2 acyl side, 3 side chain; linkers in the order of their positions; H or OH if unused. Positions of bridges follow the written chain, without caps; N, C: chain ends. Non-standard residues stand in square brackets, D forms with d. Residues, ends and D or L forms follow the SMILES beside them. Chains are numbered I, II in the order given. Actinocin(9to1) = Cc1c2oc3c(C)ccc(C(=O)[*:1])c3nc-2c(C(=O)[*:2])c(N)c1=O; NMeV = CN[C@H](C(=O)O)C(C)C; Sar = CNCC(=O)O
# Experiments:
# [1] = test system: p33^QIK; assay: In-gel kinase assay (MBP substrate) of p33^QIK activity in treated NIH3T3 cultures; assay type: cell-based, mouse; settings: for TPA-induced deactivation of p33^QIK: quiescent NIH3T3, co-treatment with 100 ng/ml TPA; for serum-induced down-regulation of p33^QIK activity: quiescent NIH3T3, co-treatment with 10% serum
# Method: (§1) Mouse NIH3T3 fibroblast cultures were maintained in Dulbecco's modified Eagle's medium (DMEM)(BRL/GIBCO, Grand Island, N.Y.) supplemented with 5% calf serum, 50 units/ml penicillin, and 5 mcg/ml streptomycin, and cultivated at 37° C.
# (§2) Mouse 10T1/2 fibroblast cultures were maintained in Basal medium Eagle (BRL/GIBCO, Grand Island, N.Y.) supplemented with 10% heat-inactivated fetal bovine serum, 50 U/ml penicillin, and 5 μg/ml streptomycin, and cultivated at 37° C. Cells synchronized in quiescent state were growth-arrested by serum starvation for 48 hr. Actinomycin D (ActD), cycloheximide (CHXM), 12-0-tetradecanoylphorbol 13-acetate (TPA), staurosporine (STSP) (Sigma Chemical, St. Louis, Mo.), sodium fluoride (NaF), sodium orthovanadate (Na3VO4) (Fisher Scientific, Pittsburgh, Pa.), and FR901228 (FR)(NCI, Frederick, Md.) were diluted in cultured medium before treatment of cultured cells. A broad range caspase inhibitor Z-Asp-[(2,6-dichlorobenzoyl)oxy]methane (Z-D-CH2-DCB) (Dolle et al., 1994; Mashima et al., 1995)(CALBIOCHEM, La Jolla, Calif.) was dissolved in dimethyl sulfoxide and diluted in cultured medium for treatment. Recombinant human Caspase-3 was purchased from Alexis Biochemicals (San Diego, Calif.). Protein phosphatase 1 (PP1) and Lambda protein phosphatase (λPPase) were purchased from NE BioLabs (Beverly, Mass.). Production of rabbit polyclonal antibody Ab-KQ to p63^Krsl and p33^QIK was made using peptide sequences of Krsl as antigens (Alpha Diagnostic International, San Antonio, Tex.). UV irradiation was carried out using a UV Crosslinker (Stratagene, La Jolla, Calif.).
# (§3) Cells were lysed with 30 strokes of a tight-fitting Dounce homogenizer in lysis A buffer (10 mM KH2PO4, 1 mM EDTA, 5 mM EGTA, 10 mM MgCl2, 50 mM […], 1 mM Na3VO4, 2 mM dithiothreitol) (Wang et al., 1992). Cytoplasmic proteins (S20) were isolated from the supernatants after centrifugation of crude lysates at 20,000 ×g for 20 min. Protein concentration in S20 was measured by using the BCA assay (Pierce, Rockford, Ill.). Immunoprecipitation of p33^QIK was carried out by incubation of S20 with the specific antibody Ab-KQ at 0° C. for 1 hr. Immune complexes were adsorbed to Pansorbin (Staphylococcus aureus) (CALBIOCHEM, La Jolla, Calif.) at 0° C. for 30 min and washed with STE buffer (50 mM Tris-HCl, pH 7.0, 150 mM NaCl, 1 mM Na2 EDTA) supplemented with 0.1 mM DTT and 0.1% NP-40 and ST buffer supplemented with 1 mM DTT.
# (§4) MBP (BRL/GIBCO, Grand Island, N.Y.) was used as a substrate in the assay and the in-gel kinase assay was performed as previously described (Wang et al., 1992). Briefly, 10% SDS-polyacrylamide gel (SDS-PAG) was copolymerized with 0.4 mg/ml MBP. Cellular proteins were resolved in the MBP-immobilized SDS-PAG, followed by rinsing the gel with 20% isopropanol in buffer B (100 mM Tris, pH 8, 5 mM β-mercaptoethanol). The gel was denatured in buffer B supplemented with 6 M guanidine-HCl and renatured with buffer B supplemented with 0.04% Tween 40 (Kameshita and Fujisawa, 1989). Kinase reaction was carried out by incubating the gel with kinase buffer (20 Mm Tris, pH 7.2, 10 mM MgCl2, 15 mM β-glycerolphosphate) supplemented with 50 μM γATP and 50 μCi of [γ-^32P]ATP at 22° C. for 30 min. The gel was washed with 1% sodium pyrophosphate in 5% trichloroacetic acid. Protein kinases which phosphorylated MBP in the gel were detected by autoradiography of the [γ^32P]-labeled MBP.
# [2] = target: T1, Caspase-3 (Homo sapiens, UniProt P42574); assay: Inhibition of caspase-3 modification of immune complexes; assay type: biochemical; settings: 5 μM inhibitor, 0.2 μg Caspase-3, 37° C., 30 min
# T1 construct: purchased Alexis Biochemicals (San Diego, Calif.)
# T1 sequence (P42574 29-175 limits assumed): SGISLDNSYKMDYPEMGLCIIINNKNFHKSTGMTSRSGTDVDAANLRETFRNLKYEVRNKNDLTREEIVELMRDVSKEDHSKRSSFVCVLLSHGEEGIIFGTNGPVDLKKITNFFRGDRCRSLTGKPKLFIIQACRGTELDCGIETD
# Method: Both p63^Krsl and p33^QIK in 10 μg of cytosolic lysates (S20) were immunoprecipitated by Ab-KQ (lanes 2 to 4 and 6 to 8), followed by reatment with 0.2 μg Caspase-3 (C)(lanes 3, 4, 7 and 8) in the presence of 5 μM caspase inhibitor Z-D-CH2-DCB (C+I)(lanes 4 and 8) at 37° C. for 30 min. The kinase activities of p63^Krsl, p35, and p33^QIK in 5 μg of S20 (lanes 1 and 5) and in the immune complexes were determined by the in-gel kinase assay using MBP as a substrate. Bars indicate p63^Krsl p35, and p33^QIK.
# Mouse 10T1/2 fibroblast cultures were maintained in Basal medium Eagle (BRL/GIBCO, Grand Island, N.Y.) supplemented with 10% heat-inactivated fetal bovine serum, 50 U/ml penicillin, and 5 μg/ml streptomycin, and cultivated at 37° C. Cells synchronized in quiescent state were growth-arrested by serum starvation for 48 hr. Actinomycin D (ActD), cycloheximide (CHXM), 12-0-tetradecanoylphorbol 13-acetate (TPA), staurosporine (STSP) (Sigma Chemical, St. Louis, Mo.), sodium fluoride (NaF), sodium orthovanadate (Na3VO4) (Fisher Scientific, Pittsburgh, Pa.), and FR901228 (FR)(NCI, Frederick, Md.) were diluted in cultured medium before treatment of cultured cells. […]
# [3] = target: p44/42^Erk; assay type: cell-based, mouse
# Method: as §1, §2, §3, §4
# [4] = test system: NIH3T3 cultures; assay: Cell death in quiescent NIH3T3 cultures; assay type: cell-based, mouse; settings: quiescent cultures treated with ActD or CHXM for 3 hr
# [5] = quiescent NIH3T3 cultures (48 hr serum starvation) stimulated with reagent, 1-6 hr
# [6] = quiescent NIH3T3 treated with serum or TPA in the presence of ActD or CHXM
# [7] = quiescent NIH3T3, absence of serum, 5 μg/ml ActD or 10 μg/ml CHXM, 1 or 3 hr
# [8] = 5 μg/ml ActD or 10 μg/ml CHXM, 1 or 3 hr
SMILES,induction of p33^QIK activity ([1]; cultures preincubated with caspase inhibitor prior to serum starvation and osmotic stress),"blockage of caspase-3 induced changes in p63^Krsl, p35 and p33^QIK activity [2]","kinase activity of p44/42^Erk [3, 5]","kinase activity of p33^QIK [1, 5]","kinase activity of p44/42^Erk [3, 6]",cell death [4],"kinase activity of p33^QIK [1, 7]","TPA-induced deactivation of p33^QIK [1, 8]","serum-induced down-regulation of p33^QIK activity [1, 8]"
"O=C(O)CC(NC(=O)OCc1ccccc1)C(=O)COC(=O)c1c(Cl)cccc1Cl [Z-D-CH2-DCB, Z-Asp-[(2,6-dichlorobenzoyl)oxy]methane]",neither blocked induction of p33^QIK activity,completely blocked,–,–,–,–,–,–,–
"CCCCCCCCCCCCCC(=O)O[C@@H]1[C@@H](C)[C@@]2(O)[C@@H](C=C(CO)C[C@]3(O)C(=O)C(C)=C[C@@H]23)[C@H]2C(C)(C)[C@]12OC(C)=O [phorbol ester, 12-0-tetradecanoylphorbol 13-acetate]",–,–,transient induction of p44/42^Erk activity,progressive decrease of p33^QIK activity,–,–,–,–,–
[F-].[Na+] [sodium fluoride],–,–,induced p44/42^Erk activity,resulted in deactivation of p33^QIK,–,–,–,–,–
"C[C@@H]1C[C@@H]([C@H](O)CC2CC(=O)NC(=O)C2)C(=O)[C@@H](C)C1 [CHXM, cycloheximide]",–,–,–,–,constant activation of p44/42^Erk,extensive cell death occurred,significant increases of p33^QIK activity,blockage of the TPA-induced deactivation of p33^QIK but also in an increase in the kinase activity of p33^QIK,blocked the serum-induced down-regulation of p33^QIK activity
"Cc1c2oc3c(C)ccc(C(=O)N[C@@H]4C(=O)N[C@H](C(C)C)C(=O)N5CCC[C@H]5C(=O)N(C)CC(=O)N(C)[C@@H](C(C)C)C(=O)O[C@@H]4C)c3nc-2c(C(=O)N[C@@H]2C(=O)N[C@H](C(C)C)C(=O)N3CCC[C@H]3C(=O)N(C)CC(=O)N(C)[C@@H](C(C)C)C(=O)O[C@@H]2C)c(N)c1=O [ActD, Actinomycin D] (I: T[dV]P[Sar][NMeV] / II: T[dV]P[Sar][NMeV]; ester I:1-I:C, II:1-II:C; linker I:N-II:N via Actinocin(9to1))",–,–,–,–,constant activation of p44/42^Erk,extensive cell death occurred,significant increases of p33^QIK activity,blockage of the TPA-induced deactivation of p33^QIK but also in an increase in the kinase activity of p33^QIK,blocked the serum-induced down-regulation of p33^QIK activity
